≈ marks a conversion by molar mass, not a printed value. Each block holds one compound with its values, some of them ahead of it.
Columns and labels:
Nox2 [1] = molecular target: T1, Nox2 (Homo sapiens (Human), UniProt P04839); assay: Nox2 activity assay for primary screening (cell free, human neutrophil plasma membranes, LO12 luminescence); type: biochemical
Protocol: Nox2 activity assay for primary screening: Plasma membranes were prepared from human neutrophils, which express large amounts of Nox2, stored at −80 C until use. See Curnutte et al., J. Biol. Chem. 1987, 262, 6450-6452, hereby incorporated by reference. Membranes are mixed with recombinant, purified cytosolic regulatory proteins (p67Np47N chimera, and a constitutively active mutant of Rac, Rac1(Q61)) and FAD, along with varying concentrations of compound, and LO12, which emits light when it reacts with ROS. The reaction is initiated by addition of NADPH and SDS (an artificial activator of Nox2).
Target sequence in this assay (P04839 2-570): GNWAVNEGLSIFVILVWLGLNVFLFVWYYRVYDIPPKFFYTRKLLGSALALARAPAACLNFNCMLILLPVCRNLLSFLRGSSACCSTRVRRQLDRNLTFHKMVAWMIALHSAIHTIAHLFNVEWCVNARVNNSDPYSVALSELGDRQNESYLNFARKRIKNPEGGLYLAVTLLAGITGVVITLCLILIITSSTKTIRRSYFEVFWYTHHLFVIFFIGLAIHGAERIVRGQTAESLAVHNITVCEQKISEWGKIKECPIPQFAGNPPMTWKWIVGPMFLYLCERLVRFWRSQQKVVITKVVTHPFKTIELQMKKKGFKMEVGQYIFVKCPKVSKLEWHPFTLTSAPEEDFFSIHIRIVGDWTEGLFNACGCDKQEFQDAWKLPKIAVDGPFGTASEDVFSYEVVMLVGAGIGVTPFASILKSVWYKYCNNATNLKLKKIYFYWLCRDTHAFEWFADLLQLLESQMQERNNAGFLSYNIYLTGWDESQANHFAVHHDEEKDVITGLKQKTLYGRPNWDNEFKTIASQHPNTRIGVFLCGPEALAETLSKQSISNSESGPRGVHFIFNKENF

xanthine oxidase = xanthine oxidase (Homo sapiens (Human), UniProt P47989); assay: Assay control: xanthine oxidase (XO) replaces Nox2 as the source of ROS, LO12 luminescence; type: biochemical; conditions: Table 2, xanthine oxidase control
Protocol: Assay controls. To rule out interference with either Nox2 or Nox4 luminescence assays, two approaches are used. In one, xanthine oxidase replaces the Nox2 enzymatic system as the source of ROS in the Nox2/LO12 assay. Xanthine is added to initiate the reaction and LO12 luminescence is recorded. In the other, exogenous H2O2 is supplied in place of the Nox4 expressing H2O2-generating cells and luminescence is recorded.

[2] = Stability in liver S9-fractions, dog; type: in vitro ADME; conditions: read-out: Stability in liver S9-fractions (t ½) Dog (converted)
[3] = Stability in liver S9-fractions, mouse; type: in vitro ADME; conditions: read-out: Stability in liver S9-fractions (t ½) Mouse (converted)
[4] = Stability in liver S9-fractions, human; type: in vitro ADME; conditions: read-out: Stability in liver S9-fractions (t ½) Human (converted)
Solubility = type: physicochemical
Nox2 [5] = molecular target: T1, Nox2; assay: Nox2 assay in human neutrophils (PMN), LO12 luminescence; type: cell-based; conditions: Table 3, human neutrophils; read-out: Nox2 (PMN)
Protocol: Nox2 assay in human neutrophils: Human neutrophils were obtained from healthy volunteers (REF). LO12 luminescence was quantified as above. Nox4 assay using stably transfected HEK cell: HEK cells stably transfected with human Nox4 were incubated with varying concentrations of compound along with LO12.
Target sequence in this assay (P04839 whole entry, looked up): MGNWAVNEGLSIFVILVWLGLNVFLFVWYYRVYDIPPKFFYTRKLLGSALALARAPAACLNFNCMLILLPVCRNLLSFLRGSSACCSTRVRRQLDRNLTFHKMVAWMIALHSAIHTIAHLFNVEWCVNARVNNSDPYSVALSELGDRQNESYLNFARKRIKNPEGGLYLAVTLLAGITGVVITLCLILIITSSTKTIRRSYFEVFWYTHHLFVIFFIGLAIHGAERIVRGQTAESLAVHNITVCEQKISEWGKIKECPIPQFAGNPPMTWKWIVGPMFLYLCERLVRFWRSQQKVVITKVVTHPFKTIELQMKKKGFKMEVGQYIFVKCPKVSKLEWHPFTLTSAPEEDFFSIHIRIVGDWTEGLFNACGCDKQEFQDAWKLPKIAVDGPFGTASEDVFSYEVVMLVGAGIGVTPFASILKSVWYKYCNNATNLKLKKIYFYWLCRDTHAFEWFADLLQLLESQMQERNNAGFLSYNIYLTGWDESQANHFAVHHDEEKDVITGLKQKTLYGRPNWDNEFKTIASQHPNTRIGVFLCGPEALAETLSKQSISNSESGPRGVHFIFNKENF
Target sequence in this assay (P13498 whole entry partner, looked up): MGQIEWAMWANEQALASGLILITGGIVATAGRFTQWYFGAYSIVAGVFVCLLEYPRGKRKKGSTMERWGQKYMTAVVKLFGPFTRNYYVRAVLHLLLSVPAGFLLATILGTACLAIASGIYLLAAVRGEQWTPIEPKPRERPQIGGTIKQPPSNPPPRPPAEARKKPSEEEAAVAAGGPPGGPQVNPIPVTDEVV

Nox1 = Nox1 (Homo sapiens (Human), UniProt Q9Y5S8); assay: Nox1 inhibition; type: biochemical; conditions: Table 3
Nox5 = Nox5 (Homo sapiens (Human), UniProt Q96PH1); assay: Nox5 inhibition; type: biochemical; conditions: Table 3
[6] = Table 3, read-out: Nox2 (Cell Free)

Nox1, sequence (Q9Y5S8 whole entry, species assumed): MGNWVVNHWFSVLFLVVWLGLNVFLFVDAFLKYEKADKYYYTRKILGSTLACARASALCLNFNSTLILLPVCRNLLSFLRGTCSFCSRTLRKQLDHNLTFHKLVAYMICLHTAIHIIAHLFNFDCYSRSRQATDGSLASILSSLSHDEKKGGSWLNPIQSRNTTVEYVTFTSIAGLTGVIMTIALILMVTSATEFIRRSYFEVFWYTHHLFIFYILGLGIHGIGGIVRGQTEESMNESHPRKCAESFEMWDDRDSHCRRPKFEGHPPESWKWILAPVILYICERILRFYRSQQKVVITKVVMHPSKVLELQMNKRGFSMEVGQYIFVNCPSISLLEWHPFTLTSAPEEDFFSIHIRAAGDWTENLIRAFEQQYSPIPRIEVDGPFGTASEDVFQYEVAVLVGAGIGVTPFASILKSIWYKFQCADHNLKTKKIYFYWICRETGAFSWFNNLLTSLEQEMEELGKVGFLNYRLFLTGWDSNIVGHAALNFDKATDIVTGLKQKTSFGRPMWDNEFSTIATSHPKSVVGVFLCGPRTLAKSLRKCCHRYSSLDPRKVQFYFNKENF
Nox1, sequence (P13498 2-195 partner, species assumed): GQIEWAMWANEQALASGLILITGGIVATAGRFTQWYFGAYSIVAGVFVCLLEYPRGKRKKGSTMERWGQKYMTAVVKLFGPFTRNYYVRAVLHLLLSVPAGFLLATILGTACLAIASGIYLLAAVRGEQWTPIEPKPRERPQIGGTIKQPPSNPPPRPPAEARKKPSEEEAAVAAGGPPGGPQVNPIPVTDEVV
xanthine oxidase, sequence (P47989 whole entry, species assumed): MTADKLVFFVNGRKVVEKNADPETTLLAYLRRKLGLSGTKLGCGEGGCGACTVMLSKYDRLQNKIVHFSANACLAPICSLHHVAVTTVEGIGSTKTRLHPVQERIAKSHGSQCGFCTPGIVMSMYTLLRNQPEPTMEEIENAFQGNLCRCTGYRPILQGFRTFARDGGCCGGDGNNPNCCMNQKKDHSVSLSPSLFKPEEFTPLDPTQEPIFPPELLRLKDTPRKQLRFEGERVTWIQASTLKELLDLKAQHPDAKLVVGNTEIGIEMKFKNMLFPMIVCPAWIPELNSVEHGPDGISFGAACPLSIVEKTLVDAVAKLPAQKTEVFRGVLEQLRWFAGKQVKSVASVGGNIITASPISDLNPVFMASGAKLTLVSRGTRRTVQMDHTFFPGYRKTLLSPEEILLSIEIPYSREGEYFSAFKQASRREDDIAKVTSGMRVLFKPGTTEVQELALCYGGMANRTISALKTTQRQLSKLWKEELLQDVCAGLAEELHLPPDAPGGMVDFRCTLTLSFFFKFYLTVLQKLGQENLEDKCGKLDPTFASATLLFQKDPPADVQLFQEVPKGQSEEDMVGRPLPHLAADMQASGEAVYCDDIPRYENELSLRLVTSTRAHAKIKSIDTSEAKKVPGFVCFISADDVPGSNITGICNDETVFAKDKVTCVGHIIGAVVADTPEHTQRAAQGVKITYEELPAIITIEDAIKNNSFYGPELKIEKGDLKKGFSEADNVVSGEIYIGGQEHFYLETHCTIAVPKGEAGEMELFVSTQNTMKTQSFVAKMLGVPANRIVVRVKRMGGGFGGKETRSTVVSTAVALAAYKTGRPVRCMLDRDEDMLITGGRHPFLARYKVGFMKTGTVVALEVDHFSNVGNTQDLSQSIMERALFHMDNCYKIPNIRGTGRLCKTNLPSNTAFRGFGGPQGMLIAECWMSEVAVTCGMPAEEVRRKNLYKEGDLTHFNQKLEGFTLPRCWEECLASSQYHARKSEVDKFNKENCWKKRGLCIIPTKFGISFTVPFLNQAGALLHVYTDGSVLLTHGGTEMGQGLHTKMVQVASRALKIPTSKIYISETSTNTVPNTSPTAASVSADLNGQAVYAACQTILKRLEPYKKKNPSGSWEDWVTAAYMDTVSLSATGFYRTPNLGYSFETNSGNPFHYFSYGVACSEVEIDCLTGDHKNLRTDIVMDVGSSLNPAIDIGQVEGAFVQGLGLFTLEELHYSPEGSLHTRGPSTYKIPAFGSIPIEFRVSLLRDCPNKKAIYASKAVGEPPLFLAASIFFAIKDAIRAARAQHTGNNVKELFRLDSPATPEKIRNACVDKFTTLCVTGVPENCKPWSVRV
Nox5, sequence (Q96PH1 whole entry, species assumed): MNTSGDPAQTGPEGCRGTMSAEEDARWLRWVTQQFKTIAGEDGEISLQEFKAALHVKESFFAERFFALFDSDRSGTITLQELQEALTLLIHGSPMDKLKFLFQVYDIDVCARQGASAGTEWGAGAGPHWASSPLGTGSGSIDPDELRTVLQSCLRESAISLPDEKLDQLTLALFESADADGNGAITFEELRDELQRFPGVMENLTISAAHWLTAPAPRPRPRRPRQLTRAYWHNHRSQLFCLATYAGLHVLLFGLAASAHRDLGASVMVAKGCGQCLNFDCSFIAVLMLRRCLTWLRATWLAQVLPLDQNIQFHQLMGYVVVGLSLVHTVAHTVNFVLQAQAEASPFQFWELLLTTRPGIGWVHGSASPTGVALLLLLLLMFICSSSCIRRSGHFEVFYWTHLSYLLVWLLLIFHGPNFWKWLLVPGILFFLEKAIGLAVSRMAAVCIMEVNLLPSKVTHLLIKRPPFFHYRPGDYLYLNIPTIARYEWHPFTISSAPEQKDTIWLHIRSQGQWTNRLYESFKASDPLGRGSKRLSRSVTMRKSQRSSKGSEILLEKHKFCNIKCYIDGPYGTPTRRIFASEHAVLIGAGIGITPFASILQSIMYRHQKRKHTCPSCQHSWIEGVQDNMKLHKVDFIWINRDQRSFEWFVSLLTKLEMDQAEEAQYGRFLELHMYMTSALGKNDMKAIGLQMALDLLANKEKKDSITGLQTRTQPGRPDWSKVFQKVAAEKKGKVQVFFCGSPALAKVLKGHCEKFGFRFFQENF

Compound: COc1ccc(N2CCN(C(=O)c3cc4cc(S(C)(=O)=O)ccc4[nH]3)CC2)cc1 [TG6-218]
inhibition at 6 µM (Nox2 [1]): 40%

Compound: COc1ccc(N2CCN(C(=O)c3[nH]c4ccc(OC)cc4c3NC(C)=O)CC2)cc1 [TG6-208]
inhibition at 2 µM (Nox2 [1]): 60%

Compound: COc1ccc(N2CCN(C(=O)c3cc4cc(C(N)=O)ccc4[nH]3)CC2)cc1 [TG6-227]
IC50 (Nox2 [1]; Table 2, read-out: IC50 Nox2): 700 nM | IC50 (Nox2 [1]; [6]): 600 nM | half-life [2]: 4.5 h | half-life [3]: 6 h | half-life [4]: 2 h | solubility (Solubility): 190 µM (≈ 71.9 µg/mL) | IC50 (Nox2 [5]): 100 nM | IC50 (Nox1): 300 nM | IC50 (xanthine oxidase): > 20000 nM

Compound: O=C(c1cc2cc([N+](=O)[O-])ccc2[nH]1)N1CCN(c2ccc(OC(F)(F)F)cc2)CC1 [TG6-209]
inhibition at 2 µM (Nox2 [1]): 25%

Compound: COC(=O)C1CN(c2ccc(OC)cc2)CCN1C(=O)c1nc2cc(F)ccc2[nH]1 (stereo not drawn) [TG6-235]
IC50 (Nox2 [1]; Table 2, read-out: IC50 Nox2): 1000 nM | IC50 (xanthine oxidase): > 20000 nM

Compound: COc1ccc(N2CCN(C(=O)c3cc4cc(F)ccc4[nH]3)CC2)cc1 [TG6-179-1]
IC50 (Nox2 [1]; Table 2, read-out: IC50 Nox2): 5000 nM

Compound: CC(=O)c1ccc2[nH]c(C(=O)N3CCN(c4ccc(OC(C)C)cc4)CC3)cc2c1 [TG6-251-2]
IC50 (Nox2 [1]; Table 2, read-out: IC50 Nox2): 1000 nM

Compound: COc1ccc(N2CCN(C(=O)c3cnc4c(F)cccc4c3O)CC2)cc1 [TG6-192]
IC50 Nox2 (Nox2 [1]; Table 2): Not active

Compound: COc1ccc(N2CCN(C(=O)c3[nH]c4ccc(F)cc4c3CN3CCOCC3)CC2)cc1.Cl [TG7-31, (5-fluoro-3-(morpholinomethyl)-1H-indol-2-yl)(4-(4-methoxyphenyl)piperazin-1-yl)methanone]
IC50 (Nox2 [1]; [6]): 800 nM | IC50 (Nox5): 1500 nM | solubility (Solubility): 276 µM | IC50 (Nox2 [5]): 200 nM | IC50 (Nox1): 600 nM

Further lines, results first:

IC50 (Nox2 [1]; Table 2, read-out: IC50 Nox2): 500 nM | IC50 (xanthine oxidase): > 20000 nM
Compound: COc1ccc(N2CCN(C(=O)c3cc4cc(C(=O)O)ccc4[nH]3)CC2)cc1 [TG6-236]

IC50 (Nox2 [1]; Table 2, read-out: IC50 Nox2): 1000 nM | IC50 (xanthine oxidase): > 20000 nM
Compound: COc1ccc(N2CCN(C(=O)c3nc4cc(OC)ccc4[nH]3)CC2)cc1 [TG6-228]

IC50 (Nox2 [1]; Table 2, read-out: IC50 Nox2): 1000 nM
Compound: COc1ccc(N2CCN(C(=O)c3[nH]c4ccc(C(C)=O)cc4c3C)CC2)cc1 [TG6-190]

IC50 (Nox2 [1]; Table 2, read-out: IC50 Nox2): 300 nM | IC50 (xanthine oxidase): > 20000 nM
Compound: COC(=O)c1ccc2[nH]c(C(=O)N3CCN(c4ccc(OC)cc4)CC3)cc2c1 [TG6-222]

IC50 (Nox2 [1]; Table 2, read-out: IC50 Nox2): 500 nM | IC50 (Nox2 [1]; [6]): 400 nM | half-life [2]: 2.5 h | half-life [3]: 5 h | half-life [4]: 4.2 h | solubility (Solubility): < 25 µM | IC50 (Nox2 [5]): 200 nM | IC50 (Nox1): 500 nM | IC50 (xanthine oxidase): > 20000 nM
Compound: COc1ccc(N2CCN(C(=O)c3cc4ccccc4[nH]3)CC2)cc1 [TG6-225]

IC50 (Nox2 [1]; Table 2, read-out: IC50 Nox2): 700 nM
Compound: COc1ccc(N2CCN(C(=O)c3[nH]c4ccc(F)cc4c3C)CC2)cc1 [TG6-200]

IC50 (Nox2 [1]; [6]): 300 nM | solubility (Solubility): 150 µM (≈ 72.2 µg/mL) | IC50 (Nox2 [5]): 200 nM | IC50 (Nox1): 900 nM
Compound: CCN(CC)CCNCc1c(C(=O)N2CCN(c3ccc(OC)cc3)CC2)[nH]c2ccc(F)cc12 [TG6-298, (3-(((2-(diethylamino)ethyl)amino)methyl)-5-fluoro-1H-indol-2-yl)(4-(4-methoxyphenyl)piperazin-1-yl)methanone]

IC50 (Nox2 [1]; Table 2, read-out: IC50 Nox2): 800 nM | IC50 (xanthine oxidase): > 20000 nM
Compound: COc1ccc(N2CCN(C(=O)c3cc4cc(OC)c(OC)cc4[nH]3)CC2)cc1 [TG6-181]

IC50 Nox2 (Nox2 [1]; Table 2): Not active | IC50 (xanthine oxidase): > 20000 nM
Compound: CCc1ccc2[nH]c(C(=O)N3CCN(c4ccc(OC)cc4)CC3)cc2c1 [TG6-202]

IC50 (Nox2 [1]; Table 2, read-out: IC50 Nox2): 2000 nM
Compound: COc1ccc(N2CCN(C(=O)c3cc4cc(C(N)=O)ccc4[nH]3)CC2)cc1F [TG6-254-1]
